In patent US8952013B2, “Controlled release sterile injectable aripiprazole formulation and method” (Otsuka Pharmaceutical Co., Ltd., priority 2003, dated 2015):

Columns and labels:
[1] = at room temperature; cited from earlier work
[2] = hygroscopicity: water content after storage in a dessicator; assay type: physicochemical; details: after 24 hours inside a dessicator at 60° C. and a humidity of 100%
Description: Aripiprazole Anhydrous Crystals B employed in the present invention have low hygroscopicity. For example, Aripiprazole Anhydrous Crystals B employed in the present invention maintain a water content of 0.4% or less after 24 hours inside a dessicator set at a temperature of 60° C. and a humidity of 100%.
Well-known methods of measuring water content can be used as long as they are methods commonly used for measuring the water content of crystals. For example, a method such as the Karl Fischer method can be used.

Row | water content [2] [%] | Structure (SMILES) | aqueous solubility [1] [µg/mL]
1 |  | O=C1CCc2ccc(OCCCCN3CCN(c4cccc(Cl)c4Cl)CC3)cc2N1 [Aripiprazole] | < 1
2 | ≤ 0.4 | O=C1CCc2ccc(OCCCCN3CCN(c4cccc(Cl)c4Cl)CC3)cc2N1 [Aripiprazole Anhydrous Crystals B, Aripiprazole] | 
